What was measured:
PACA-2 = assay: MTS assay (cell growth inhibition), PACA-2; type: cell-based; settings: PACA-2 cells, 72 hours incubation with test compound; concentration not given
Summary of the method: (§1)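 First, seed 3000 cells per well in low-serum (1% FBS) DMEM and culture 18 h. Next, add compounds prepared at 300× in DMSO and diluted 1:40 in DMEM; incubate 72 h. Finally, add MTS/PMS for 4 h and measure absorbance at 492 nm.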

Kato III = assay: MTS assay (cell growth inhibition), Kato III; type: cell-based; settings: Kato III cells, 72 hours incubation with test compound; concentration not given
Summary of the method: as §1

MDA-MB = assay: MTS assay (cell growth inhibition), MDA-MB; type: cell-based; settings: MDA-MB cells, 72 hours incubation with test compound; concentration not given
Summary of the method: as §1

NCI-H1299 = assay: MTS assay (cell growth inhibition), NCI-H1299; type: cell-based; settings: NCI-H1299 cells, 72 hours incubation with test compound; concentration not given
Summary of the method: as §1

DLD-1 = assay: MTS assay (cell growth inhibition), DLD-1; type: cell-based; settings: DLD-1 cells, 72 hours incubation with test compound; concentration not given
Summary of the method: as §1

PC-3 = assay: MTS assay (cell growth inhibition), PC-3; type: cell-based; settings: PC-3 cells, 72 hours incubation with test compound; concentration not given
Summary of the method: as §1

Compound	MTS CELL KILL DATA (% INHIBITION) PACA-2 (PACA-2)	MTS CELL KILL DATA (% INHIBITION) Kato III (Kato III)	MTS CELL KILL DATA (% INHIBITION) MDA-MB (MDA-MB)	MTS CELL KILL DATA (% INHIBITION) NCI-H1299 (NCI-H1299)	melting point	MTS CELL KILL DATA (% INHIBITION) DLD-1 (DLD-1)	MTS CELL KILL DATA (% INHIBITION) PC-3 (PC-3)
N#Cc1cccc(CN2C(=O)c3cnc4[nH]nc(Br)c4c3C2=O)c1 [Example 142, 3-[(1-bromo-6,8-dioxo-6,8-dihydropyrazolo[3,4-b]pyrrolo[3,4-d]pyridin-7(3H)-yl)methyl]benzonitrile]	C (C = <50% INHIBITION)	C (C = <50% INHIBITION)	B (B = 50-79% INHIBITION)	C (C = <50% INHIBITION)	283 to 285 °C	C (C = <50% INHIBITION)	A (A = 80-100% INHIBITION)
COc1ccc(OC)c(-c2ccccc2CN2C(=O)c3cnc4[nH]ncc4c3C2=O)c1 [Example 143, 7-[(2′,5′-dimethoxybiphenyl-2-yl)methyl]pyrazolo[3,4-b]pyrrolo[3,4-d]pyridine-6,8(3H,7H)-done]	C (C = <50% INHIBITION)	C (C = <50% INHIBITION)	A (A = 80-100% INHIBITION)	C (C = <50% INHIBITION)	208 to 211 °C	C (C = <50% INHIBITION)	A (A = 80-100% INHIBITION)
Cc1ccc(-c2ccccc2CN2C(=O)c3cnc4[nH]ncc4c3C2=O)cc1F [Example 146, 7-[(3′-fluoro-4′-methylbiphenyl-2-yl)methyl]pyrazolo[3,4-b]pyrrolo[3,4-d]pyridine-6,8(3H,7H)-dione]	C (C = <50% INHIBITION)	C (C = <50% INHIBITION)	C (C = <50% INHIBITION)	C (C = <50% INHIBITION)	193 to 198 °C	C (C = <50% INHIBITION)	C (C = <50% INHIBITION)
